In article PMC10907374, “G2019S selective LRRK2 kinase inhibitor abrogates mitochondrial DNA damage” (NPJ Parkinson's Disease, 2024):
Entries after “also recorded” stand apart in the source; their conditions may differ.

Experiments:
Format in all cases: cell-based, human
[1] = system: heterozygous G2019S LRRK2 PD patient-derived LCLs; assay: Mito DNADX mtDNA damage and mtDNA copy number in G2019S LRRK2 PD patient-derived LCLs; conditions: 10 and 100 nM, 2 h
Description: PD patient G2019S LRRK2 (n = 2) and healthy subject control (n = 2)-derived LCLs were obtained from the NINDS Coriell biorepository (ID numbers are ND00011, ND00264, ND01618, ND02559). There was not a statistical difference in the ages between the PD patient and healthy control subjects (p = 0.92). LCLs were cultured at 37 °C, 5% CO2, in RPMI-1640 (Sigma-Aldrich, R8758), 15% heat-inactivated fetal bovine serum (VWR Seradigm, 97068-091) and 0.5% Penicillin/Streptomycin (Corning, 30-002-CI). […] All in vitro experiments were repeated at least three times from distinct samples.
(§1) The tool compound EB-42168 was discovered as part of a small molecule discovery program aimed at identifying LRRK2 kinase inhibitors that are selective for the pathogenic G2019S LRRK2 variant. […] MLi‐2 inhibits WT LRRK2 ~1000‐fold more than EB‐42168[20].
(§2) Cells were collected and the nuclei and mitochondria were isolated as previously described. DNA was extracted from LRRK2-WT and G2019S-LRRK2 cells, and wild-type and LRRK2^G2019S/G2019S KI cells using QuickGene DNA Whole Blood Kit L (Autogen, fk-dbl). PD patient LRRK2 G2019S and healthy subject control-derived LCL DNA was extracted using the QuickGene DNA Tissue Kit L (Autogen, fk-dtl), utilizing a semi-automated system (Autogen, QuickGene-610L). For the Autogen system, the pellet was resuspended in 2 ml of 1X PBS, and the standard manufacturer’s protocol was conducted as if the cell suspension was whole blood. DNA was eluted with EDTA-free buffer, and quality was assessed using a Spectradrop microvolume microplate (Molecular Devices). Double-stranded DNA was quantified using Quant-iT Picogreen dsDNA assay (Thermo Fisher) as previously described.
DNA damage in the mitochondrial genome was measured utilizing Mito DNADX, an assay that we recently developed and described, currently the most robust way of measuring damage in mtDNA[39],[82]. The Mito DNADX assay combines optimized polymerase chain reaction (PCR) parameters using a high-fidelity DNA polymerase and a fluorescent dye that binds to double-stranded DNA that permits the real-time quantification of DNA damage in distinct loci in a 96-well platform. The premise of the Mito DNADX assay involves amplification of a specific mitochondrial PCR fragment in which less PCR product will be amplified when mtDNA damage or lesions block the ability of the DNA polymerase to replicate. As such, mtDNA damage or mtDNA repair intermediates that slow down or impair DNA polymerase progression will be detected. […] Briefly, 15 ng of DNA was used to amplify long or short amplicons of the mitochondrial genome (as determined by primer sets). […] Average lesion frequency is calculated as described. […] Each biological DNA sample was analyzed in technical triplicate. […]

[2] = system: LRRK2^G2019S/G2019S KI HEK293 cells; assay: Mito DNADX mtDNA damage and mtDNA copy number in LRRK2 G2019S/G2019S KI HEK293 cells; conditions: for mtDNA copy number / mtDNA damage: LRRK2 G2019S/G2019S KI cells, 2 h; for mtDNA copy number: 10 nM-1 μM
Description: (§3) Cells were plated at a density of 0.3 × 10^6 cells in a 6-well dish and treated at ~40–50% confluency. At the time of harvest, cells were collected and either protein collected or DNA extracted as described below.
Following this treatment, “Post-treatment recovery 0 h” samples were collected immediately, or vehicle or MLi-2-containing treatment medium was washed out and replaced with fresh medium and incubated for 2 additional hours and then collected as “Post-treatment recovery 2 h” samples. Isolation, quantitation, and mtDNA damage was performed as described below.
as §1, §2
DNA damage in the mitochondrial genome was measured utilizing Mito DNADX, an assay that we recently developed and described, currently the most robust way of measuring damage in mtDNA[39],[82]. The Mito DNADX assay combines optimized polymerase chain reaction (PCR) parameters using a high-fidelity DNA polymerase and a fluorescent dye that binds to double-stranded DNA that permits the real-time quantification of DNA damage in distinct loci in a 96-well platform. The premise of the Mito DNADX assay involves amplification of a specific mitochondrial PCR fragment in which less PCR product will be amplified when mtDNA damage or lesions block the ability of the DNA polymerase to replicate. As such, mtDNA damage or mtDNA repair intermediates that slow down or impair DNA polymerase progression will be detected. Therefore, equal amounts of sample DNA amplified under identical conditions can be directly compared across conditions to determine the mtDNA lesion frequency. Mitochondrial DNA lesion frequency was performed as previously described. Briefly, 15 ng of DNA was used to amplify long or short amplicons of the mitochondrial genome (as determined by primer sets). The amount of amplification is directly proportional to the number of undamaged DNA templates. Average lesion frequency is calculated as described. Results are presented with the values in experimental samples relative to control samples (normalized to 1 lesion per 10 kb). PCR reactions included KAPA Long Range HotStart DNA Polymerase (KAPA Biosystems)[49]. Each biological DNA sample was analyzed in technical triplicate. Limitations of the Mito DNADX assay have been recently discussed.

wild-type HEK293 cells = assay: Mito DNADX mtDNA damage and mtDNA copy number in wild-type HEK293 cells; conditions: 10 nM-1 μM, 2 h
Description: as §3
Following this treatment, “Post-treatment recovery 0 h” samples were collected immediately, or vehicle or MLi-2-containing treatment medium was washed out and replaced with fresh medium and incubated for 2 additional hours and then collected as “Post-treatment recovery 2 h” samples. Isolation, quantitation, and mtDNA damage was performed as described below. […]
Cells were collected and the nuclei and mitochondria were isolated as previously described. […] DNA was eluted with EDTA-free buffer, and quality was assessed using a Spectradrop microvolume microplate (Molecular Devices). Double-stranded DNA was quantified using Quant-iT Picogreen dsDNA assay (Thermo Fisher) as previously described.
DNA damage in the mitochondrial genome was measured utilizing Mito DNADX, an assay that we recently developed and described, currently the most robust way of measuring damage in mtDNA[39],[82]. The Mito DNADX assay combines optimized polymerase chain reaction (PCR) parameters using a high-fidelity DNA polymerase and a fluorescent dye that binds to double-stranded DNA that permits the real-time quantification of DNA damage in distinct loci in a 96-well platform. […]

Row | SMILES | mtDNA copy number [1] | mtDNA damage [1] | mtDNA copy number [2] | mtDNA copy number ([2]; listed as EB-42618) | mtDNA damage ([2]; all concentrations tested (10 nM-1 μM)) | mtDNA copy number (wild-type HEK293 cells) | mtDNA copy number after inhibitor washout ([2]; 100 nM for 2 h, washout, 2 h recovery) | mtDNA damage phenotype after inhibitor washout ([2]; KI cells, 100 nM for 2 h, washout, 2 h recovery in media) | time to re-establishment of mtDNA damage phenotype after washout ([2]; KI cells, 100 nM for 2 h then washout) | mtDNA damage ([2]; 100 nM)
1 | CC1=C(C(=O)Nc2ccc3[nH]nc(-c4ccnc(N5CCOCC5)c4)c3c2)C(C)(C)n2nnnc2N1C [EB-42168] | No differences | restored to control levels | reduced | modestly decreased | reversed to wild-type levels | no effect | – | – | – | –
2 | C[C@@H]1CN(c2cc(-c3n[nH]c4ccc(OC5(C)CC5)cc34)ncn2)C[C@H](C)O1 [MLi-2, reference compound] | No differences | reversed mtDNA damage | did not change; also recorded: No effect; also recorded: No changes | – | – | did not change | no changes | fully re-established | ≤ 2 h | reversed mtDNA damage levels to wild-type levels
